10 compounds from patent US9079913B2, “Spiro-oxindole MDM2 antagonists” (The Regents of the University of Michigan, priority 2009, dated 2015) can be followed below.

Like-named read-outs stand apart in the source and are kept apart here.

The target of data set [1] is recombinant human His-tagged MDM2 protein (residues 1-118) (Homo sapiens (Human), UniProt Q00987). The data set is described as follows: Fluorescence-polarization MDM2 binding assay.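 Note: fluorescence polarization read after three hours of incubation in potassium phosphate buffer containing bovine gamma globulin and Triton X-100.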
Sequence of recombinant human His-tagged MDM2 protein (residues 1-118) (Q00987 1-118): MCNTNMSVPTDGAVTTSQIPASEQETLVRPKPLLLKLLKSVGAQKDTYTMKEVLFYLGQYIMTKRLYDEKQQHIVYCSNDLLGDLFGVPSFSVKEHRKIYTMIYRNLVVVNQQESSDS
In data set [2] the test system is cancer cell lines with wild-type p53 / mutated or deleted p53 (ATCC). The data set is described as follows: Cell growth assay (WST-8), other cancer cell lines. In kind it is cell-based.
The subject of data set [3] is Isogenic HCT-116 colon cancer cell lines. The data set is described as follows: cells. Type of data set: cell-based.
Protocol: Cells were seeded in 96-well flat bottom cell culture plates at a density of 2−3×10^3 cells/well with compounds and incubated for 4 days.
Data set [4] in a line: In vitro microsomal stability, rat. Type of data set: in vitro ADME. Particulars: for Microsomal stability, % remaining: Rat Microsome, same batch.
The nature of data set [5]: In vitro microsomal stability, human. Type of data set: in vitro ADME. Conditions: for Microsomal stability, % remaining: Human Microsome, same batch.
Where [6] appears, read: Table 19A, FP binding assay, read-out: MDM2 IC50.
[7] abbreviates: Homo sapiens, PC-3, Table 19A, PC-3 cells, deleted p53, cell growth, read-out: PC-3 (deleted p53) IC50.
[8] abbreviates: Homo sapiens, HCT-116, read-out: HCT-116 (p53-/-) IC50, Table 19A, HCT-116 p53-/-, cell growth.
Where [9] appears, read: Homo sapiens, HCT-116, read-out: HCT-116 (p53 wild-type) IC50, Table 19A, HCT-116 p53 wild-type, cell growth.
The mark [10] stands for this setting: Homo sapiens, LNCaP, Table 19A, LNCAP cells, p53 wild-type, cell growth, read-out: LNCAP (p53 wild-type) IC50.
The mark [11] stands for this setting: Table 19D, read-out: MDM2 Binding Affinities IC50.

Take `CC(C)(C)C[C@@H]1N[C@@H](C(=O)N[C@H]2C[C@@](C)(O)C2)[C@H](c2cccc(Cl)c2F)[C@]12C(=O)Nc1c2ccc(Cl)c1F`: in data set [1] (setting [6]), the IC50 was below 100 nM.
`CC(C)(C)C[C@H]1N[C@@H](C(=O)N[C@H]2C[C@@](C)(O)C2)[C@H](c2cccc(Cl)c2)[C@@]12C(=O)Nc1cc(F)c(F)cc12` [C035]: the IC50 in data set [1] (setting [6]) was below 3000 nM; in data set [2] (setting [7]) it was above 10000 nM.
Turning to `CC(C)(C)C[C@H]1N[C@@H](C(=O)NCC[C@H](O)C=O)[C@H](c2cccc(Cl)c2)[C@@]12C(=O)Nc1cc(Cl)c(F)cc12` [MI-219-M1 (a)], the IC50 is below 1000 nM in data set [1] (setting [6]); above 10000 nM in data set [3] (setting [8]); below 3000 nM in data set [3] (setting [9]); below 3000 nM in data set [2] (setting [10]); above 10000 nM in data set [2] (setting [7]).
Consider `CC(C)(C)C[C@H]1N[C@@H](C(=O)NCCC(=O)CO)[C@H](c2cccc(Cl)c2)[C@@]12C(=O)Nc1cc(Cl)c(F)cc12` [MI-219-M1 (b)], for which the IC50 is below 1000 nM in data set [1] (setting [6]); above 10000 nM in data set [3] (setting [8]); below 3000 nM in data set [3] (setting [9]); below 3000 nM in data set [2] (setting [10]); above 10000 nM in data set [2] (setting [7]).
On to `CC(C)(C)C[C@H]1N[C@@H](C(=O)NCCCO)[C@H](c2cccc(Cl)c2)[C@@]12C(=O)Nc1cc(Cl)c(F)cc12` [MI-219-M8], for which the IC50 in data set [1] (setting [11]) is below 1000 nM; in data set [3] (Homo sapiens, HCT-116, read-out: HCT116p53KO IC50, Table 19D, HCT116 p53KO), 18000 ± 4100 nM; in data set [3] (Homo sapiens, HCT-116, read-out: HCT116p53WT IC50, Table 19D, HCT116 p53WT) it was 1400 ± 900 nM; in data set [2] (Homo sapiens, LNCaP, Table 19D, LNCaP cells, read-out: LNCaP IC50) it was 1100 ± 500 nM; in data set [2] (Homo sapiens, PC-3, Table 19D, PC3 cells, read-out: PC3 IC50) it was 9200 ± 1600 nM.
With `CC(C)(C)C[C@H]1N[C@@H](C(=O)NCC[C@H](O)CO)[C@H](Cc2ccccc2)[C@@]12C(=O)Nc1cc(Cl)c(F)cc12` [MI-319-23], the IC50 in data set [1] (Table 19C, read-out: Bidning affinities to MDM2 as determined using FP assay IC50) is above 10000 nM; in data set [3] (Homo sapiens, HCT-116, read-out: Cell growth inhibition using WST assay, HCT116 p53KO IC50, Table 19C, HCT116 p53KO) it was above 10000 nM; in data set [3] (Homo sapiens, HCT-116, read-out: Cell growth inhibition using WST assay, HCT116 p53WT IC50, Table 19C, HCT116 p53WT) it was above 10000 nM; in data set [2] (Homo sapiens, LNCaP, Table 19C, LNCaP cells, read-out: Cell growth inhibition using WST assay, LNCaP IC50), above 10000 nM; in data set [2] (Homo sapiens, PC-3, Table 19C, PC3 cells, read-out: Cell growth inhibition using WST assay, PC3 IC50), above 10000 nM.
Take `CC(O)C(O)CCNC(=O)[C@@H]1N[C@H](CC(C)(C)C)[C@]2(C(=O)Nc3cc(Cl)c(F)cc32)[C@H]1c1cccc(Cl)c1` (some centres unmarked) [MI-519-31]: the IC50 was 20100 ± 2500 nM in data set [3] (read-out: HCT-116 (p53-/-) IC50, Table 19A, HCT-116 p53-/-, cell growth); 2000 ± 800 nM in data set [3] (read-out: HCT-116 (p53 wild-type) IC50, Table 19A, HCT-116 p53 wild-type, cell growth); 1300 ± 200 nM in data set [2] (Table 19A, LNCAP cells, p53 wild-type, cell growth, read-out: LNCAP (p53 wild-type) IC50); 24700 ± 2000 nM in data set [2] (Table 19A, PC-3 cells, deleted p53, cell growth, read-out: PC-3 (deleted p53) IC50). Also, the “% of compound remaining when incubated in rat liver microsomes at indicated time (min)” value in data set [4] (0 min) was determined as 100%; in data set [4] (4 min), 80.1%; in data set [4] (6 min), 69.4%; in data set [4] (10 min), 54.3%; in data set [4] (15 min), 47.7%; in data set [4] (30 min), 31%. Also, the “% of compound remaining when incubated in rat liver microsomes with NADPH” value is on record as 100.00% in data set [4] (0 min); 80.22% in data set [4] (5 min); 65.69% in data set [4] (10 min); 57.57% in data set [4] (15 min); 42.91% in data set [4] (30 min); 34.31% in data set [4] (45 min). The “% of compound remaining when incubated in rat liver microsomes with NADPH” value is reported as 32.81% in data set [4] (60 min); 100.00% in data set [4] (rat liver microsomes, NADPH, 0 min); 80.22% in data set [4] (rat liver microsomes, NADPH, 5 min); 65.69% in data set [4] (rat liver microsomes, NADPH, 10 min); 57.57% in data set [4] (rat liver microsomes, NADPH, 15 min); 42.91% in data set [4] (rat liver microsomes, NADPH, 30 min). Further, the “% of compound remaining when incubated in rat liver microsomes with NADPH” value in data set [4] (rat liver microsomes, NADPH, 45 min) came to 34.31%; in data set [4] (rat liver microsomes, NADPH, 60 min), 32.81%. Besides, the “Microsomal stability, % remaining” value in data set [4] (0 min) is on record as 100.00%; in data set [4] (5 min), 80.22%; in data set [4] (10 min) it was 65.69%; in data set [4] (15 min), 57.57%; in data set [4] (30 min), 42.91%; in data set [4] (45 min) it was 34.31%. Besides, the “Microsomal stability, % remaining” value was found to be 32.81% in data set [4] (60 min); 100.00% in data set [5] (0 min); 78.11% in data set [5] (5 min); 58.15% in data set [5] (10 min); 45.42% in data set [5] (15 min); 22.75% in data set [5] (30 min). Besides, the results for the “Microsomal stability, % remaining” value in data set [5] (45 min) and in data set [5] (60 min) were 13.25% and 8.56%, respectively. The half-life in data set [4] (rat, liver microsomes, rat liver microsomes with NADPH) was 18.7 min; in data set [5] (human, liver microsomes, human liver microsomes with NADPH) it was 13 min. Also, the “% of compound remaining when incubated in human liver microsomes with NADPH” value in data set [5] (0 min) is given as 100.00%; in data set [5] (5 min) it was 78.11%; in data set [5] (10 min), 58.15%; in data set [5] (15 min), 45.42%; in data set [5] (30 min), 22.75%; in data set [5] (45 min), 13.25%. For the same compound, the “% of compound remaining when incubated in human liver microsomes with NADPH” value in data set [5] (60 min) is recorded as 8.56%; in data set [5] (human liver microsomes, NADPH, 0 min) it was 100.00%; in data set [5] (human liver microsomes, NADPH, 5 min), 78.11%; in data set [5] (human liver microsomes, NADPH, 10 min), 58.15%; in data set [5] (human liver microsomes, NADPH, 15 min), 45.42%; in data set [5] (human liver microsomes, NADPH, 30 min), 22.75%. The “% of compound remaining when incubated in human liver microsomes with NADPH” value in data set [5] (human liver microsomes, NADPH, 45 min) is given as 13.25%; in data set [5] (human liver microsomes, NADPH, 60 min) it was 8.56%.
In the case of `CC(C)(C)C[C@H]1N[C@@H](C(=O)NC2CC(O)C2)[C@H](c2cccc(Cl)c2F)[C@@]12C(=O)Nc1cc(Cl)ccc12` (some centres unmarked) [MI-519-60], the IC50 is below 3000 nM in data set [3] (Homo sapiens, HCT-116, read-out: HCT-116 (p53 wild-type) IC50); below 3000 nM in data set [2] (Homo sapiens, LNCaP, read-out: LNCAP (p53 wild-type) IC50); below 3000 nM in data set [2] (Homo sapiens, SJSA-1, read-out: SJSA-1 (p53 wild-type) IC50). For the same compound, in data set [2], the “cell growth inhibition (in words)” value was “more potent than its epimer MI-519-63”. The “% of compound remaining when incubated in rat liver microsomes with NADPH” value is recorded as 100% in data set [4] (0 min); 79.93% in data set [4] (5 min); 63.72% in data set [4] (10 min); 51.52% in data set [4] (15 min); 40.6% in data set [4] (30 min); 35.16% in data set [4] (45 min). In data set [4] (60 min), the “% of compound remaining when incubated in rat liver microsomes with NADPH” value is given as 29.15%. Further, the “% of compound remaining when incubated in human liver microsomes with NADPH” value in data set [5] (0 min) amounted to 100%; in data set [5] (5 min), 83.26%; in data set [5] (10 min) it was 68.14%; in data set [5] (15 min) it was 51.54%; in data set [5] (30 min) it was 49.28%; in data set [5] (45 min), 40.97%. In addition, the “% of compound remaining when incubated in human liver microsomes with NADPH” value in data set [5] (60 min) worked out at 37.55%.
As to `CC(C)(C)C[C@H]1N[C@@H](C(=O)NC2CN(CC(F)F)C2)[C@H](c2cccc(Cl)c2F)[C@@]12C(=O)Nc1cc(Cl)ccc12` [MI-519-72], the IC50 in data set [1] (setting [11]) is below 1000 nM.
For `CC(C)(C)C[C@H]1N[C@@H](C(=O)NC2CCN(S(=O)(=O)C(F)(F)F)CC2)[C@H](c2cccc(Cl)c2F)[C@@]12C(=O)Nc1cc(Cl)ccc12` [MI-780], the IC50 in data set [1] (setting [6]) is below 3000 nM; in data set [2] (Homo sapiens, SJSA-1, Table 19A, SJSA-1 cells, p53 wild-type, cell growth, read-out: SJSA-1 (p53 wild-type) IC50) it was below 5000 nM.
